Measured values published in ChEMBL document CHEMBL3868631, “Discovery of SOAT2 inhibitors from synthetic small molecules” (Bioorg Med Chem Lett, 2016).

How the values were obtained:
[1] = Cytotoxicity against CHO cells expressing African green monkey SOAT1 assessed as change in cell shape at 10 ug/ml; assay type: toxicity, cell-based, Cricetulus griseus; conditions: chinese hamster
[2] = Cytotoxicity against CHO cells expressing African green monkey SOAT2 assessed as change in cell shape at 10 ug/ml; assay type: toxicity, cell-based, Cricetulus griseus; conditions: chinese hamster
[3] = target: T1, SOAT1 (sterol O-acyltransferase 1) (Chlorocebus aethiops, UniProt O77760); assay: Inhibition of African green monkey SOAT1 expressed in CHO cells assessed as reduction in [14C]cholesteryl ester formation from [1-14C]oleic acid at 10 ug/ml measured after 6 hrs relative to control; assay type: ADME, cell-based; conditions: CHO cells expressing African green monkey SOAT1, probe [1-14C]oleic acid
T1 sequence (O77760 whole entry): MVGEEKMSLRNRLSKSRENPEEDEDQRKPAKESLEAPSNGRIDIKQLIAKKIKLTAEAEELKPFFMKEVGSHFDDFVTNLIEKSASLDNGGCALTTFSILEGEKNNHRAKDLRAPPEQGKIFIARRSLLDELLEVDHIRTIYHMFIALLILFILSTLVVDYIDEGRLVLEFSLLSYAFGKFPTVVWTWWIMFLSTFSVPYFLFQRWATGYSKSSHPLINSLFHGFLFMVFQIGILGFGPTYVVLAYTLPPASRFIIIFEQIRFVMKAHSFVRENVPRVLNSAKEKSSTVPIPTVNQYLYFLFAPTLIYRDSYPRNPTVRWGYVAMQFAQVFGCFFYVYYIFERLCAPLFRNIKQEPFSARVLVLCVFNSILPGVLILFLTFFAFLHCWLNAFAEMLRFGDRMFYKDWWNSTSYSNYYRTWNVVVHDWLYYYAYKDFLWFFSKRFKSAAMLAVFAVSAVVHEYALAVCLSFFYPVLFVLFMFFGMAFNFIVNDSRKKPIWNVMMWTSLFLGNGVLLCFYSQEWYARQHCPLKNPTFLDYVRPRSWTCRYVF

[4] = target: T2, Sterol O-acyltransferase 1 (Chlorocebus aethiops, UniProt O77760); assay: Inhibition of African green monkey SOAT1 expressed in CHO cells assessed as reduction in [14C]cholesteryl ester formation from [1-14C]oleic acid measured after 6 hrs; assay type: ADME, cell-based
T2 sequence (O77760 whole entry): T1 sequence (O77760 whole entry)

[5] = target: T3, Sterol O-acyltransferase 2 (Chlorocebus aethiops, UniProt O77759); assay: Inhibition of African green monkey SOAT2 expressed in CHO cells assessed as reduction in [14C]cholesteryl ester formation from [1-14C]oleic acid measured after 6 hrs; assay type: cell-based
T3 sequence (O77759 whole entry): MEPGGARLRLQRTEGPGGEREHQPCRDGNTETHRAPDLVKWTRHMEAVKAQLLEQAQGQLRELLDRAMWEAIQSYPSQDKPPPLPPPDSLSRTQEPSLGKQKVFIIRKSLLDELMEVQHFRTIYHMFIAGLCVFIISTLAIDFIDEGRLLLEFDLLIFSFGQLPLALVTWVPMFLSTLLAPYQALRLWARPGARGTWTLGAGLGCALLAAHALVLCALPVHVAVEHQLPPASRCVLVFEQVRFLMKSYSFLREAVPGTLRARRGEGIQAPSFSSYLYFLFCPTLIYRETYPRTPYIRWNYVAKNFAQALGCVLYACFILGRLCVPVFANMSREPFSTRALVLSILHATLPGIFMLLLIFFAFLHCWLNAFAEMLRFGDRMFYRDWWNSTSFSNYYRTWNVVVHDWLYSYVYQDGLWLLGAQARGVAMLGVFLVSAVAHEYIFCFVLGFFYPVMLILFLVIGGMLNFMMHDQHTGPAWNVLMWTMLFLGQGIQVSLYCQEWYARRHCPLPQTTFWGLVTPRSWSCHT

[6] = target: T4, Sterol O-acyltransferase 2 (Chlorocebus aethiops) (UniProt O77759); assay: Inhibition of African green monkey SOAT2 expressed in CHO cells assessed as reduction in [14C]cholesteryl ester formation from [1-14C]oleic acid at 10 ug/ml measured after 6 hrs relative to control; assay type: cell-based
T4 sequence (whole entry): T3 sequence (O77759 whole entry)

[7] = Selectivity index, ratio of IC50 for African green monkey SOAT1 expressed in CHO cells to IC50 for African green monkey SOAT2 expressed in CHO cells; design: species or system Chlorocebus aethiops

| inhibition at 6 h, 10 ug/ml [3] [%] | IC50 [4] [µM] | IC50 [5] [µM] | inhibition [6] [%] | SMILES | Activity [1] | Activity [2] | Ratio IC50 [7] |
| --- | --- | --- | --- | --- | --- | --- | --- |
|  |  |  |  | CCC[C@@H]1CC(=O)C[C@@]2(O1)C(=O)Nc1cc(Cl)ccc12 (racemic) | Non-Toxic | Non-Toxic |  |
|  |  |  |  | CCC[C@@H]1CC(=O)C[C@@]2(O1)C(=O)Nc1cccc(Br)c12 | Non-Toxic | Non-Toxic |  |
|  |  |  |  | O=C1C[C@@H](CCCCl)O[C@]2(C1)C(=O)Nc1cccc(Br)c12 | Non-Toxic | Non-Toxic |  |
| > 50 | 11 | 9.1 | > 50 | CCC[C@@H]1C[C@@H](NCc2ccccc2)C[C@@]2(O1)C(=O)N(Cc1ccccc1)c1ccccc12 (racemic) |  |  | 1.2 |
| > 50 | > 28 | 9.3 | > 50 | CCC[C@@H]1CC(=O)C[C@@]2(O1)C(=O)N(C)c1cccc(Br)c12 | Non-Toxic | Non-Toxic | >3 |
|  |  |  |  | CCC[C@@H]1CC(=O)C[C@@]2(O1)C(=O)Nc1ccccc12 (racemic) | Non-Toxic |  |  |
|  |  |  |  | CCC/C=C/C(=O)CC1(O)C(=O)Nc2ccccc21 (racemic) | Toxic | Toxic |  |
|  |  |  |  | CCC[C@@H]1CC(=O)C[C@@]2(O1)C(=O)Nc1cccc(Cl)c12 | Non-Toxic | Non-Toxic |  |
| > 50 | > 28 | 6.8 | > 50 | CCC[C@@H]1C[C@@H](NCc2ccccc2)C[C@@]2(O1)C(=O)Nc1ccccc12 (racemic) | Non-Toxic | Non-Toxic | >4.1 |
|  |  |  |  | CCC[C@@H]1CC(=O)C[C@@]2(O1)C(=O)Nc1ccccc12 |  | Non-Toxic |  |
| > 50 | 8.9 | 3 | > 50 | CCC[C@@H]1CC(=NOCc2ccccc2)C[C@@]2(O1)C(=O)Nc1ccccc12 (racemic) |  |  | 3 |
|  |  |  |  | CCC[C@@H]1CC(=O)C[C@@]2(O1)C(=O)Nc1ccc(C)cc12 | Non-Toxic | Non-Toxic |  |
| > 50 | > 23 | 12 | > 50 | CCC[C@@H]1C[C@@H](NCc2ccccc2)C[C@@]2(O1)C(=O)Nc1cccc(Br)c12 (racemic) |  |  | >1.9 |
| > 50 | > 31 | 26 | > 50 | CCC[C@@H]1C[C@@H](N2CCCC2)C[C@@]2(O1)C(=O)Nc1ccccc12 (racemic) |  |  | >1.2 |
| > 50 | > 22 | > 33 | > 50 | CCC[C@@H]1C[C@@H](NCc2ccccc2)C[C@@]2(O1)C(=O)N(C)c1cccc(Br)c12 (racemic) |  |  |  |
| > 50 |  |  | > 50 | O=C1CC(c2ccccc2)O[C@]2(C1)C(=O)Nc1cccc(Br)c12 (mixture of isomers) | Non-Toxic | Non-Toxic |  |
|  |  |  |  | C=CC[C@@]1(O)C[C@@H](CCC)O[C@]2(C1)C(=O)Nc1ccccc12 | Non-Toxic | Non-Toxic |  |
| > 50 | > 27 | > 27 | > 50 | CCC[C@@H]1C[C@@H](NCc2ccccc2)C[C@@]2(O1)C(=O)N(C)c1ccccc12 (racemic) |  |  |  |
| > 50 |  |  | > 50 | CCC[C@@H]1C/C(=N/O)C[C@@]2(O1)C(=O)Nc1ccccc12 (racemic) | Non-Toxic | Non-Toxic |  |
| > 50 |  |  | > 50 | CCC/C=C/C(=O)CC1(O)C(=O)Nc2cccc(Br)c21 (racemic) | Toxic | Toxic |  |
|  |  |  |  | CCC[C@@H]1C[C@@H](O)C[C@@]2(O1)C(=O)Nc1ccccc12 | Non-Toxic | Non-Toxic |  |
| > 50 | 16 | 1.5 | > 50 | CCC[C@@H]1C/C(=N/OCc2ccccc2)C[C@@]2(O1)C(=O)Nc1ccccc12 |  |  | 10 - 11 |
|  |  |  |  | CCC[C@@H]1CC(=O)C[C@@]2(O1)C(=O)Nc1ccc(Br)cc12 (racemic) | Non-Toxic | Non-Toxic |  |
| > 50 | 14 | 16 | > 50 | CCC[C@H]1C/C(=N/OCc2ccccc2)C[C@]2(O1)C(=O)Nc1ccccc12 |  |  | 0.88 |
